Experimental data taken from patent US9096591B2, “Tetracyclic compounds” (Medivation Technologies, Inc., priority 2007, dated 2015).
Read-outs that look alike come from different tables or passages of the source.

Columns and labels:
[1] = target: T1, human recombinant histamine H2 receptor (Homo sapiens, UniProt P25021); experiment: Histamine H2 radioligand binding ([125I]Aminopotentidine)
T1 construct: expressed in transfected cells; host or cells: CHO-K1 cells
How it was run: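 Test compounds were assessed for their ability to displace radioligand from the human recombinant histamine H2 receptor. Non-specific binding was determined in the presence of 3 μM Tiotidine, and results were expressed as percent inhibition of specific binding, with 1% DMSO serving as the vehicle.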

[2] = target: T2, human recombinant adrenergic α1D receptor (Homo sapiens, UniProt P25100); experiment: Adrenergic α1D radioligand binding ([3H]Prozosin); parameters: Inhibition of ligand binding, Adren. alpha1D: concentration or dose not given beside the values; conditions: for Inhibition of ligand binding, Adren. alpha1D: percent inhibition of specific binding
T2 construct: expressed in transfected cells; host or cells: HEK-293 cells
T2 sequence (P25100 1-572): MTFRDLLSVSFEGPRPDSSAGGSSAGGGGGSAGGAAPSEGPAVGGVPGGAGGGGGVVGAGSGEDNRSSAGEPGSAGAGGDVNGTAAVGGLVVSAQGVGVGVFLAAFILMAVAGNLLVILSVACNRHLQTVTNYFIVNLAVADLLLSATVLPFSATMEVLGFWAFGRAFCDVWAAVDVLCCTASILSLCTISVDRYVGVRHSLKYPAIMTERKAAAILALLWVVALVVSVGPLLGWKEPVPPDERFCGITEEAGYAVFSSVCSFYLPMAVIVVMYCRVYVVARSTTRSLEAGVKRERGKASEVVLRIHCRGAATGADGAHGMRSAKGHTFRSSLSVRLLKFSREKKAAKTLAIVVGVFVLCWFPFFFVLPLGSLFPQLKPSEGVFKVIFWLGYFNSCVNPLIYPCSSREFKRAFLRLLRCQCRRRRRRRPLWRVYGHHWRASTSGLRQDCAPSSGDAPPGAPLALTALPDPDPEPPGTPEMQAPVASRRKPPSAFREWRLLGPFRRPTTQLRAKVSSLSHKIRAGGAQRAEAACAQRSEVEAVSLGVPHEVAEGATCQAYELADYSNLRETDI
Protocol: Compounds of invention were incubated with 0.6 nM [^3H]Prozosin for 60 minutes at 25° C. Non-specific binding was estimated in the presence of 10 μM phentolamine. Receptor proteins were filtered and washed, the filters were then counted to determine [^3H]Prozosin specifically bound. […] Biochemical assay results are presented as the percent inhibition of specific binding in Table 6.

[3] = target: T3, human recombinant adrenergic α2B receptor (Homo sapiens, UniProt P18089); experiment: Adrenergic α2B radioligand binding ([3H]Rauwolscine); parameters: Inhibition of ligand binding, Adren. alpha2B: concentration or dose not given beside the values; conditions: for Inhibition of ligand binding, Adren. alpha2B: percent inhibition of specific binding
T3 construct: expressed in transfected cells; host or cells: CHO-K1 cells
T3 sequence (P18089 1-450): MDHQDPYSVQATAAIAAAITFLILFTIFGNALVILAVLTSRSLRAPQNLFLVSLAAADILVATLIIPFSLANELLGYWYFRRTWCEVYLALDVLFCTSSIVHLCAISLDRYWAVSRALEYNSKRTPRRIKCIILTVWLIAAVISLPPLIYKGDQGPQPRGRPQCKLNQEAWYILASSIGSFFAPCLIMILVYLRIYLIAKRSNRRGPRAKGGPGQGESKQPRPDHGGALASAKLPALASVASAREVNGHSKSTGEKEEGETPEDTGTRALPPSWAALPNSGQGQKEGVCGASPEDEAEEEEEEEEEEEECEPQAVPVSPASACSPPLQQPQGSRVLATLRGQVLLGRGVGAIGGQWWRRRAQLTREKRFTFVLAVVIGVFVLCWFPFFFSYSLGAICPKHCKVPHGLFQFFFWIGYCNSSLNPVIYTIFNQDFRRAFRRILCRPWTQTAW
Protocol: To evaluate in radioligand binding assays the activity of compounds of the invention, human recombinant adrenergic α2B receptor expressed in Chinese hamster ovary (CHO-K1) cells (Uhlen S et al. Eur J. Pharmacol. 343(1):93, 1998) in a modified Tris-HCl buffer (50 mM Tris-HCl, pH 7.4, 12.5 mM MgCl2, 1 mM EDTA, 0.2% BSA) was used. Compounds of the invention were incubated with 2.5 nM [^3H]Rauwolscine for 60 minutes at 25° C. Non-specific binding was estimated in the presence of 10 μM Prozosin. Receptor proteins were filtered and washed, the filters were then counted to determine [^3H]Rauwolscine specifically bound. […] Biochemical assay results are presented as the percent inhibition of specific binding in Table 6.

[4] = target: T4, human recombinant dopamine D2L receptor (Homo sapiens, UniProt P14416); experiment: Dopamine D2L radioligand binding ([3H]Spiperone); conditions: percent inhibition of specific binding
T4 construct: expressed in transfected cells; host or cells: CHO cells
Protocol: Non-specific binding was estimated in the presence of 10 μM Haloperidol. Receptor proteins were filtered and washed, the filters were then counted to determine [^3H]Spiperone specifically bound. […] Biochemical assay results are presented as the percent inhibition of specific binding in Table 6.

[5] = target: T5, human recombinant serotonin (5-Hydroxytryptamine) 5-HT2C receptor (Homo sapiens, UniProt P28335); experiment: Serotonin 5-HT2C radioligand binding ([3H]Mesulergine); parameters: Inhibition of ligand binding, Ser. 5-HT2C: concentration or dose not given beside the values; conditions: for Inhibition of ligand binding, Ser. 5-HT2C: percent inhibition of specific binding
T5 construct: expressed in transfected cells; host or cells: CHO-K1 cells
T5 sequence (P28335 33-458): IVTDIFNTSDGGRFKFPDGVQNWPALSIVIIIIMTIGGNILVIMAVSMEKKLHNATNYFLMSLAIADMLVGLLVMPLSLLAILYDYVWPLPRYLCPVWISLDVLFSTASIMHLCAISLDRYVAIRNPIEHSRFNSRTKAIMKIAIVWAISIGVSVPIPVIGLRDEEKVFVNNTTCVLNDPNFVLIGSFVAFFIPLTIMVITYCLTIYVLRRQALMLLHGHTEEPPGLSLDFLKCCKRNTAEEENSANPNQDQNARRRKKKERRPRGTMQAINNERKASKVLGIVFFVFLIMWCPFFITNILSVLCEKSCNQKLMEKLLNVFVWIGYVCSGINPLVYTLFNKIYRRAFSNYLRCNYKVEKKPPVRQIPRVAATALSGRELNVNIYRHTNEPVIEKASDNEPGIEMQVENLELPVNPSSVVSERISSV
Protocol: Compounds of the invention were incubated with 1 nM [^3H]Mesulergine for 60 minutes at 25° C. Non-specific binding was estimated in the presence of 1 μM Mianserin. Receptor proteins were filtered and washed, the filters were then counted to determine [^3H]Mesulergine specifically bound. […] Biochemical assay results are presented as the percent inhibition of specific binding in Table 6.

[6] = target: T6, human recombinant serotonin (5-Hydroxytryptamine) 5-HT2A receptor (Homo sapiens, UniProt P28223); experiment: Serotonin 5-HT2A radioligand binding ([3H]Ketanserin); conditions: for Inhibition of ligand binding, Ser. 5-HT2A: percent inhibition of specific binding
T6 construct: expressed in transfected cells; host or cells: CHO-K1 cells
Protocol: Compounds of the invention were incubated with 0.5 nM [^3H]Ketanserin for 60 minutes at 25° C. Non-specific binding was estimated in the presence of 1 μM Mianserin. Receptor proteins were filtered and washed, the filters were then counted to determine [^3H]Ketanserin specifically bound. […] Biochemical assay results are presented as the percent inhibition of specific binding in Table 6.

[7] = percent inhibition of specific binding, screened at 1 μM, read-out: Inhibition of ligand binding, Hist. H2
[8] = 1 μM compound, 0.1 nM [125I]Aminopotentidine, read-out: Histamine Binding H2, percent inhibition of specific binding

T6 sequence (P28223 whole entry): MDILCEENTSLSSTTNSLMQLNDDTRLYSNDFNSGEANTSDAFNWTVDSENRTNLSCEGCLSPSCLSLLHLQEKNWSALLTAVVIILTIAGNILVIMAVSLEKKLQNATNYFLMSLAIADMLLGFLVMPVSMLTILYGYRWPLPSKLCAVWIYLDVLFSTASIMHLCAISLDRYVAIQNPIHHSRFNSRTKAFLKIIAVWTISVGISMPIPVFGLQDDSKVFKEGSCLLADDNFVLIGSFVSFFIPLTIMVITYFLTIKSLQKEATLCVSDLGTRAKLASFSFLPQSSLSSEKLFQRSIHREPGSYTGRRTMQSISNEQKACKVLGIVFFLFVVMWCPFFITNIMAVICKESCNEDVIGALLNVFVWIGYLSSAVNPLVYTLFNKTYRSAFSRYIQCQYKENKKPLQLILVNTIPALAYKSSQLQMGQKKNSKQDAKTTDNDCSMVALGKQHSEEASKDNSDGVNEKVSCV
T4 sequence (P14416 whole entry): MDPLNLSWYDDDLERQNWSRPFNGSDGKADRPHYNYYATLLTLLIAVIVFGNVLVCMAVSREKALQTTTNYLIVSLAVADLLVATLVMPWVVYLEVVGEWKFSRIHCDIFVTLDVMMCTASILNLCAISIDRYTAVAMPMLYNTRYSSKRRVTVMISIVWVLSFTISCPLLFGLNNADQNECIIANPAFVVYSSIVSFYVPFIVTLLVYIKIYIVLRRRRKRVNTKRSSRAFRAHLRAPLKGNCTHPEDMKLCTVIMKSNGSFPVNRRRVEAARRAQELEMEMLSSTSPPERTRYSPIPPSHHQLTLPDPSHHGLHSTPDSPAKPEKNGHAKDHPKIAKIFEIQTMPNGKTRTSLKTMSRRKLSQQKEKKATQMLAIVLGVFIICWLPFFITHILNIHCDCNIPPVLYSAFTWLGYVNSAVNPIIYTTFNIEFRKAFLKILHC
T1 sequence (P25021 whole entry): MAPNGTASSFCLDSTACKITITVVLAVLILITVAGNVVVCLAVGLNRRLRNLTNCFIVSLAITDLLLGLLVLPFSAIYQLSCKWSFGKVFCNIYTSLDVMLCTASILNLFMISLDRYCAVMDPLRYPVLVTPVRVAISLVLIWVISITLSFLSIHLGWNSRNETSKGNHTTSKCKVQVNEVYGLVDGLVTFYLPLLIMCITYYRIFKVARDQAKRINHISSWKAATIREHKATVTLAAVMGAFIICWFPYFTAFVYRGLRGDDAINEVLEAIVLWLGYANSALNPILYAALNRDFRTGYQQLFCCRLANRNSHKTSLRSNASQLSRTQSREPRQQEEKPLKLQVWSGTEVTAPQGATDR

| SMILES | inhibition at 1 µM [1, 7] [%] | Inhibition of ligand binding, Adren. alpha1D [2] [%] | Inhibition of ligand binding, Adren. alpha2B [3] [%] | Inhibition of ligand binding, Dop. D2L [4] [%] | Inhibition of ligand binding, Ser. 5-HT2C [5] [%] | inhibition at 1 µM [1, 8] [%] | Inhibition of ligand binding, Ser. 5-HT2A [6] [%] | Hist. H2 ([1]; inhibition profile) | Adren. alpha1D ([2]; inhibition profile) | Adren. alpha2B ([3]; inhibition profile) | Ser. 5-HT2A ([6]; inhibition profile) | Ser. 5-HT2C ([5]; inhibition profile) |
| --- | --- | --- | --- | --- | --- | --- | --- | --- | --- | --- | --- | --- |
| CC1CCN(C(=O)Cn2c3c(c4cc(Cl)ccc42)CN(C)CC3)CC1 [Compound 237, 2-(8-chloro-1,2,3,4-tetrahydro-2-methylpyrido[4,3-b]indol-5-yl)-1-(4-methylpiperidin-1-yl)ethanone] | 24 | 14 | 12 | −1 | 36 | 24 |  |  |  |  |  |  |
| CN1CCc2c(c3cc(Cl)ccc3n2CC(=O)N2CCOCC2)C1 [Compound 238, 2-(8-chloro-1,2,3,4-tetrahydro-2-methylpyrido[4,3-b]indol-5-yl)-1-morpholinoethanone] | 6 | 2 | 14 | −1 | 20 | 6 |  |  |  |  |  |  |
| CCN1CCc2c(c3cc(C)ccc3n2Cc2ccccc2)C1 [Compound 140, 5-benzyl-2-ethyl-2,3,4,5-tetrahydro-8-methyl-1H-pyrido[4,3-b]indole] | 45 | 14 | −4 |  | −10 | 45 | −3 |  |  |  |  |  |
| Cc1ccc2c(c1)c1c(n2CCc2ccc(C)nc2)CC[N+](C)([O-])C1 (stereo not drawn) [Example 93, 2,8-dimethyl-5-(2-(6-methylpyridin-3-yl)ethyl)-2,3,4,5-tetrahydro-1H-pyrido[4,3-b]indole 2-oxide] |  |  |  |  |  |  |  | 19 | 19 | 36 | 4 | 9 |
| CCN1CCc2c(c3ccccc3n2Cc2ccccc2)C1 [Compound 16, 5-benzyl-2-ethyl-2,3,4,5-tetrahydro-1H-pyrido[4,3-b]indole] | 3 | 12 | 10 |  | 5 | 3 | 14 |  |  |  |  |  |

More lines, main results first:

| inhibition at 1 µM [1, 7] [%] | Inhibition of ligand binding, Adren. alpha1D [2] [%] | Inhibition of ligand binding, Adren. alpha2B [3] [%] | Inhibition of ligand binding, Dop. D2L [4] [%] | Inhibition of ligand binding, Ser. 5-HT2C [5] [%] | inhibition at 1 µM [1, 8] [%] | SMILES | Inhibition of ligand binding, Ser. 5-HT2A [6] [%] | Hist. H2 ([1]; inhibition profile) | Adren. alpha1D ([2]; inhibition profile) | Adren. alpha2B ([3]; inhibition profile) | Ser. 5-HT2A ([6]; inhibition profile) | Ser. 5-HT2C ([5]; inhibition profile) |
| --- | --- | --- | --- | --- | --- | --- | --- | --- | --- | --- | --- | --- |
| 25 | 4 | 25 | −1 | 61 |  | CC1CCCCN1C(=O)Cn1c2c(c3cc(Cl)ccc31)CN(C)CC2 (stereo not drawn) [Compound 321, 2-(8-chloro-1,2,3,4-tetrahydro-2-methylpyrido[4,3-b]indol-5-yl)-1-(2-methylpiperidin-1-yl)ethanone] |  |  |  |  |  |  |
| 3 | 15 | 7 | 0 | 11 |  | CC(=O)N1CCN(C(=O)Cn2c3c(c4cc(Cl)ccc42)CN(C)CC3)CC1 [Compound 297, 1-(4-Acetyl-piperazin-1-yl)-2-(8-chloro-2-methyl-1,2,3,4-tetrahydro-pyrido[4,3-b]indol-5-yl)-ethanone] |  |  |  |  |  |  |
| 8 | 1 | 19 | 4 | 20 | 8 | CC1CN(C(=O)Cn2c3c(c4cc(Cl)ccc42)CN(C)CC3)CC(C)N1 (stereo not drawn) [Compound 245] |  |  |  |  |  |  |
| 10 | 3 | 24 | −1 | 65 | 10 | CN1CCc2c(c3cc(Cl)ccc3n2CC(=O)N2CCSCC2)C1 [Compound 239, 2-(8-chloro-1,2,3,4-tetrahydro-2-methylpyrido[4,3-b]indol-5-yl)-1-thiomorpholinoethanone] |  |  |  |  |  |  |
| 16 | 12 | 11 | 1 | 59 | 16 | CN1CCc2c(c3cc(Cl)ccc3n2CC(=O)N2CCNC(=O)C2)C1 [Compound 246] |  |  |  |  |  |  |
| 23 | 42 | 50 | 9 | 27 | 23 | CN1CCc2c(c3cc(Cl)ccc3n2CCC(=O)N2CCCC2)C1 [Compound 240, 3-(8-chloro-1,2,3,4-tetrahydro-2-methylpyrido[4,3-b]indol-5-yl)-1-(pyrrolidin-1-yl)propan-1-one] |  |  |  |  |  |  |
